PubChem BioAssay AID256 (DTP/NCI, 2004)
Where “and” joins values, the source holds several entries; their conditions need not be identical. Identical values can stand only once. Inconclusive results and toxic doses are left out.

Test system: CD2F1 mice, L1210 leukemia ip, survival T/C
Test: NCI In Vivo Anticancer Drug Screen. Data for tumor model L1210 Leukemia (intraperitoneal) in CD2F1 (CDF1) mice
Details: higher = longer survival
Procedure, shortened: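 Each value reflects a quotient of treated over vehicle control outcomes in mice with a transplanted tumor.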

[1] = endpoint: mean survival time, dose: 12.5 mg/kg/injection, schedule: Q01DX009 (ip), vehicle: saline with Tween-80
[2] = endpoint: mean survival time, dose: 25.0 mg/kg/injection, schedule: Q01DX009 (ip), vehicle: saline with Tween-80
[3] = endpoint: mean survival time, dose: 50.0 mg/kg/injection, schedule: Q01DX009 (ip), vehicle: saline with Tween-80
[4] = endpoint: mean survival time, dose: 100.0 mg/kg/injection, schedule: Q01DX009 (ip), vehicle: saline with Tween-80
[5] = endpoint: mean survival time, dose: 200.0 mg/kg/injection, schedule: Q01DX009 (ip), vehicle: saline with Tween-80
[6] = endpoint: mean survival time, dose: 400.0 mg/kg/injection, schedule: Q01DX009 (ip), vehicle: saline with Tween-80
[7] = endpoint: mean survival time, dose: 100.0 mg/kg/injection, schedule: Q04DX003 (ip), vehicle: saline with Tween-80
[8] = endpoint: mean survival time, dose: 200.0 mg/kg/injection, schedule: Q04DX003 (ip), vehicle: saline with Tween-80
[9] = endpoint: mean survival time, dose: 400.0 mg/kg/injection, schedule: Q04DX003 (ip), vehicle: saline with Tween-80
[10] = endpoint: mean survival time, dose: 100.0 mg/kg/injection, schedule: Q01DX009 (ip), vehicle: saline
[11] = endpoint: mean survival time, dose: 200.0 mg/kg/injection, schedule: Q01DX009 (ip), vehicle: saline
[12] = endpoint: mean survival time, dose: 100.0 mg/kg/injection, schedule: Q04DX002 (ip), vehicle: saline

COc1cc(C)c(Cl)[n+]([O-])n1
T/C (endpoint: mean survival time, dose: 3.13 mg/kg/injection, schedule: Q04DX002 (ip), vehicle: saline with Tween-80): 104 % of control
T/C (endpoint: mean survival time, dose: 6.25 mg/kg/injection, schedule: Q04DX002 (ip), vehicle: saline with Tween-80): 104 % of control
T/C (endpoint: mean survival time, dose: 12.5 mg/kg/injection, schedule: Q04DX002 (ip), vehicle: saline with Tween-80): 97 % of control and 104 % of control

Oc1ccc(SCc2ccc(NCc3ccccc3)cc2)cc1
T/C (endpoint: mean survival time, dose: 12.5 mg/kg/injection, schedule: Q01DX009 (ip), vehicle: DMSO): 95 % of control
T/C [1]: 99 % of control
T/C (endpoint: mean survival time, dose: 25.0 mg/kg/injection, schedule: Q01DX009 (ip), vehicle: DMSO): 97 % of control
T/C [2]: 97 % of control
T/C (endpoint: mean survival time, dose: 50.0 mg/kg/injection, schedule: Q01DX009 (ip), vehicle: DMSO): 97 % of control
T/C [3]: 103 % of control
T/C (endpoint: mean survival time, dose: 100.0 mg/kg/injection, schedule: Q01DX009 (ip), vehicle: DMSO): 92 % of control
T/C [4]: 104 % of control
T/C [5]: 101 % of control
T/C [6]: 101 % of control

Cc1cccc(NC(=O)NCCBr)c1
T/C [7]: 100 % of control
T/C [8]: 88 % of control
T/C [9]: 92 % of control

[Cl][Pt+2][Cl].[NH-]CC1(C[NH-])CCCCC1
T/C (endpoint: mean survival time, dose: 25.0 mg/kg/injection, schedule: Q04DX003 (ip), vehicle: saline): 95 % of control

C=CC(=O)NC(C)(C)CC(C)(C)C
T/C [4]: 105 % of control
T/C [7]: 92 % of control
T/C [8]: 102 % of control
T/C [9]: 96 % of control

CC(=O)Nc1c([N+](=O)[O-])cc2c3c(cccc13)CC2
T/C [4]: 102 % of control
T/C [7]: 100 % of control
T/C [5]: 97 % of control
T/C [8]: 102 % of control
T/C [6]: 97 % of control
T/C [9]: 100 % of control

CN(C)C(CCN1CCCCC1)CN1CCCCC1 (stereo unspecified)
T/C [10]: 101 % of control
T/C (endpoint: mean survival time, dose: 100.0 mg/kg/injection, schedule: Q04DX003 (ip), vehicle: saline): 101 % of control
T/C [11]: 98 % of control
T/C (endpoint: mean survival time, dose: 200.0 mg/kg/injection, schedule: Q04DX003 (ip), vehicle: saline): 101 % of control
T/C (endpoint: mean survival time, dose: 400.0 mg/kg/injection, schedule: Q01DX009 (ip), vehicle: saline): 102 % of control
T/C (endpoint: mean survival time, dose: 400.0 mg/kg/injection, schedule: Q04DX003 (ip), vehicle: saline): 98 % of control

C[N+](C)(C)CCS(=O)(=O)c1ccc(Cl)cc1
T/C (endpoint: mean survival time, dose: 25.0 mg/kg/injection, schedule: Q04DX002 (ip), vehicle: saline): 90 % of control
T/C (endpoint: mean survival time, dose: 50.0 mg/kg/injection, schedule: Q04DX002 (ip), vehicle: saline): 94 % of control
T/C [12]: 86 % of control

O=C(O)CBr.O=C(O)CBr.[NH-]C1CCCCCCC1[NH-].[Pt+2] (stereo unspecified)
T/C (endpoint: mean survival time, dose: 4.68 mg/kg/injection, schedule: Q01DX001 (ip), vehicle: distilled water + Tween-80): 122 % of control
T/C (endpoint: mean survival time, dose: 9.36 mg/kg/injection, schedule: Q01DX001 (ip), vehicle: distilled water + Tween-80): 119 % of control
T/C (endpoint: mean survival time, dose: 18.75 mg/kg/injection, schedule: Q01DX001 (ip), vehicle: distilled water + Tween-80): 161 % of control

N#CC(c1ccccc1)C(CC(=O)c1ccccc1)c1ccccc1 (stereo unspecified)
T/C [4]: 88 % of control
T/C [7]: 100 % of control
T/C [5]: 88 % of control
T/C [8]: 96 % of control
T/C [9]: 103 % of control

N#CSCc1ccc(O)c(C(=O)O)c1
T/C (endpoint: mean survival time, dose: 10.0 mg/kg/injection, schedule: Q01DX009 (ip), vehicle: saline with Tween-80): 94 % of control
T/C (endpoint: mean survival time, dose: 20.0 mg/kg/injection, schedule: Q01DX009 (ip), vehicle: saline with Tween-80): 105 % of control
T/C (endpoint: mean survival time, dose: 40.0 mg/kg/injection, schedule: Q01DX009 (ip), vehicle: saline with Tween-80): 106 % of control

C=CCSc1ncnc2c1ncn2C1OC(CO)C(O)C1O (stereo unspecified)
T/C (endpoint: mean survival time, dose: 88.0 mg/kg/injection, schedule: Q01DX009 (ip), vehicle: carboxymethylcellulose (CMC)): 154 % of control
T/C (endpoint: mean survival time, dose: 133.0 mg/kg/injection, schedule: Q01DX009 (ip), vehicle: carboxymethylcellulose (CMC)): 158 % of control

NC(=S)CNC(=O)c1ccccc1
T/C [7]: 100 % of control and 101 % of control
T/C [8]: 101 % of control and 106 % of control
T/C [9]: 99 % of control and 111 % of control

O=C(O)C1C2CC3OC(=O)C1C3C2O (stereo unspecified)
T/C [4]: 91 % of control
T/C [5]: 93 % of control
T/C [6]: 96 % of control

O=C(NC(CO)C(O)c1ccc(N=Nc2cccc3ccccc23)cc1)C(Cl)Cl (stereo unspecified)
T/C [4]: 100 % of control
T/C [5]: 101 % of control
T/C [6]: 101 % of control

COC1C(O)C(CO)OC1n1cc(F)c(=O)[nH]c1=O (stereo unspecified)
T/C (endpoint: mean survival time, dose: 50.0 mg/kg/injection, schedule: Q01DX009 (ip), vehicle: saline): 104 % of control
T/C [10]: 100 % of control
T/C [11]: 115 % of control

C1CCC(C2CCCC[N-]2)[N-]C1.CC(C)C([NH-])C(=O)O.[Cl][Pt] (stereo unspecified)
T/C (endpoint: median survival time, dose: 10.0 mg/kg/injection, schedule: Q04DX003 (ip), vehicle: saline): 101 % of control
T/C (endpoint: median survival time, dose: 20.0 mg/kg/injection, schedule: Q04DX003 (ip), vehicle: saline): 102 % of control
T/C (endpoint: median survival time, dose: 40.0 mg/kg/injection, schedule: Q04DX003 (ip), vehicle: saline): 100 % of control
T/C (endpoint: median survival time, dose: 80.0 mg/kg/injection, schedule: Q04DX003 (ip), vehicle: saline): 94 % of control and 96 % of control
T/C (endpoint: median survival time, dose: 160.0 mg/kg/injection, schedule: Q04DX003 (ip), vehicle: saline): 97 % of control

COC(=O)C(CSCc1ccccc1)NC(=O)CCNC(=O)OCc1ccccc1 (stereo unspecified)
T/C (endpoint: mean survival time, dose: 25.0 mg/kg/injection, schedule: Q01DX009 (ip), vehicle: Klucel (hydroxypropylcellulose) (HPC)): 102 % of control
T/C (endpoint: mean survival time, dose: 50.0 mg/kg/injection, schedule: Q01DX009 (ip), vehicle: Klucel (hydroxypropylcellulose) (HPC)): 102 % of control
T/C (endpoint: mean survival time, dose: 100.0 mg/kg/injection, schedule: Q01DX009 (ip), vehicle: Klucel (hydroxypropylcellulose) (HPC)): 96 % of control
T/C (endpoint: mean survival time, dose: 200.0 mg/kg/injection, schedule: Q01DX009 (ip), vehicle: Klucel (hydroxypropylcellulose) (HPC)): 102 % of control
T/C (endpoint: mean survival time, dose: 400.0 mg/kg/injection, schedule: Q01DX009 (ip), vehicle: Klucel (hydroxypropylcellulose) (HPC)): 86 % of control

NCCCN1CCCCC1
T/C [12]: 102 % of control
T/C (endpoint: mean survival time, dose: 200.0 mg/kg/injection, schedule: Q04DX002 (ip), vehicle: saline): 95 % of control
T/C (endpoint: mean survival time, dose: 400.0 mg/kg/injection, schedule: Q04DX002 (ip), vehicle: saline): 102 % of control

O=S(=O)(c1ccccc1)N1CN2CCN(C2)C1
T/C [1]: 95 % of control and 110 % of control
T/C [2]: 97 % of control and 100 % of control
T/C [3]: 102 % of control and 106 % of control
T/C [4]: 101 % of control and 111 % of control
T/C [5]: 117 % of control and 107 % of control
T/C [6]: 117 % of control and 105 % of control

O=C(O)Cc1ccc(Cl)cc1[N+](=O)[O-]
T/C (endpoint: mean survival time, dose: 100.0 mg/kg/injection, schedule: Q01DX001 (ip), vehicle: other): 113 % of control
T/C (endpoint: mean survival time, dose: 200.0 mg/kg/injection, schedule: Q01DX001 (ip), vehicle: other): 107 % of control
T/C (endpoint: mean survival time, dose: 400.0 mg/kg/injection, schedule: Q01DX001 (ip), vehicle: other): 98 % of control

c1ccc2nc3c4ccccc4c4ccccc4c3nc2c1
T/C (endpoint: mean survival time, dose: 100.0 mg/kg/injection, schedule: Q04DX002 (ip), vehicle: Klucel (hydroxypropylcellulose) (HPC)): 97 % of control
T/C (endpoint: mean survival time, dose: 200.0 mg/kg/injection, schedule: Q04DX002 (ip), vehicle: Klucel (hydroxypropylcellulose) (HPC)): 97 % of control
T/C (endpoint: mean survival time, dose: 400.0 mg/kg/injection, schedule: Q04DX002 (ip), vehicle: Klucel (hydroxypropylcellulose) (HPC)): 97 % of control

CN(CCSSCCN(C)/N=C/c1ccccc1)/N=C/c1ccccc1
T/C [7]: 97 % of control
T/C [8]: 101 % of control
T/C [9]: 101 % of control

CC1C(=O)OC2C1CCC1(C)C=CC(=O)C(C)(Cl)C21O (stereo unspecified)
T/C (endpoint: mean survival time, dose: 100.0 mg/kg/injection, schedule: Q04DX002 (ip), vehicle: saline with Tween-80): 100 % of control
T/C (endpoint: mean survival time, dose: 200.0 mg/kg/injection, schedule: Q04DX002 (ip), vehicle: saline with Tween-80): 100 % of control
T/C (endpoint: mean survival time, dose: 400.0 mg/kg/injection, schedule: Q04DX002 (ip), vehicle: saline with Tween-80): 91 % of control and 87 % of control

NC(N)=NCCc1ccccc1
T/C (endpoint: mean survival time, dose: 5.0 mg/kg/injection, schedule: Q01DX009 (ip), vehicle: saline): 102 % of control
T/C (endpoint: mean survival time, dose: 5.0 mg/kg/injection, schedule: Q04DX003 (ip), vehicle: saline): 92 % of control
T/C (endpoint: mean survival time, dose: 10.0 mg/kg/injection, schedule: Q01DX009 (ip), vehicle: saline): 103 % of control
T/C (endpoint: mean survival time, dose: 10.0 mg/kg/injection, schedule: Q04DX003 (ip), vehicle: saline): 102 % of control
T/C (endpoint: mean survival time, dose: 20.0 mg/kg/injection, schedule: Q01DX009 (ip), vehicle: saline): 96 % of control
T/C (endpoint: mean survival time, dose: 20.0 mg/kg/injection, schedule: Q04DX003 (ip), vehicle: saline): 97 % of control

O=C(O)C12CCC(CC1)CC2
T/C (endpoint: mean survival time, dose: 75.0 mg/kg/injection, schedule: Q01DX001 (ip), vehicle: other): 107 % of control
T/C (endpoint: mean survival time, dose: 150.0 mg/kg/injection, schedule: Q01DX001 (ip), vehicle: other): 104 % of control
T/C (endpoint: mean survival time, dose: 300.0 mg/kg/injection, schedule: Q01DX001 (ip), vehicle: other): 104 % of control
